Reference: publication PMC3823413 (Journal of Cellular and Molecular Medicine, 2008)

Tests used:
human PMN [1] = details: H2O2 production; PMN incubated with mediator for 6 hrs; mean (± S.E.M.)
human PMN [2] = test: Vitality of human PMN after incubation with inflammatory mediators; type: cell-based; details: dead cells after 6 hrs incubation with mediator; mean (± S.E.M.)
[3] = system: fMLP-stimulated H2O2 production in human PMN; test: Adenosine inhibition of fMLP-stimulated H2O2 production in human PMN; type: cell-based; details: for IC50: Homo sapiens
[4] = PMN pre-incubated with IFN-γ 6 hrs
[5] = PMN pre-incubated with IL-1 6 hrs
[6] = PMN pre-incubated with IL-8 6 hrs
[7] = PMN pre-incubated with LPS 10 μg/ml 6 hrs
[8] = PMN pre-incubated with TNF-α 6 hrs

For “IFN-γ: cytokine used for PMN stimulation”, the Spontaneous activity (human PMN [1]) was 36 (± 2.37) MFI.

For TNF-α, the “PI-positive PMN” value (human PMN [2]) was 2.89 (± 0.39) % and the Spontaneous activity (human PMN [1]) was 34 (± 1.51) MFI.

`Nc1ncnc2c1ncn2[C@@H]1O[C@H](CO)[C@@H](O)[C@H]1O` [adenosine] showed an IC50 ([3]; 6 h, control (native) PMN, culture medium 6 hrs) of 75 nM, an IC50 [3, 4] of 123 nM and an IC50 [3, 5] of 40 nM. For the same molecule, the IC50 [3, 6] was 43 nM, the IC50 [3, 7] was 332 nM and the IC50 [3, 8] was 106 nM. For the same molecule, the “concentration reaching maximum inhibition” value ([3]; LPS-incubated PMN) was 10^−5 M, the “increase of the IC50 on the H2O2 production” value ([3]; LPS-treated (6 hrs) versus native human PMN) was 4.4 fold and the “Max. inhibition (6 S.E.M.)” value [3, 4] was 86.8 (± 4.3) %. The “Max. inhibition (6 S.E.M.)” value [3, 5] was 78.6 (± 2.5) %, the “Max. inhibition (6 S.E.M.)” value [3, 6] was 76.3 (± 5.8) % and the “Max. inhibition (6 S.E.M.)” value [3, 7] was 75.2 (± 2.5) %. For the same molecule, the “Max. inhibition (6 S.E.M.)” value [3, 8] was 84.8 (± 3.6) %, the “Max. inhibition (6 S.E.M.)” value ([3]; control (native) PMN, culture medium 6 hrs) was 78.8 (± 1.5) % and the “concentration reaching maximum inhibitory effects” value ([3]; untreated neutrophils) was 10^−6 M.

For IL-8: cytokine used for PMN stimulation, the “PI-positive PMN” value (human PMN [2]) was 1.74 (± 0.36) % and the Spontaneous activity (human PMN [1]) was 30 (± 1.76) MFI.

B1: IFN-γ: cytokine used for PMN stimulation (protein, UniProt P01579 24-161, looked up)
Interferon gamma: QDPYVKEAENLKKYFNAGHSDVADNGTLFLGILKNWKEESDRKIMQSQIVSFYFKLFKNFKDDQSIQKSVETIKEDMNVKFFNSNKKKRDDFEKLTNYSVTDLNVQRKAIHELIQVMAELSPAAKTGKRKRSQMLFRG
B1 was tested, and the “PI-positive PMN” value (human PMN [2]) was 2.76 (± 0.37) %.
